Test results as given in patent publication US8614208B2, “Fused heterocyclic ring derivative and use thereof” (Takeda Pharmaceutical Company Limited, priority 2009, dated 2013).

Molecular target: T1, Smo (Mus musculus, UniProt P56726)
T1 construct: endogenous in cells; host or cells: NIH-3T3 cells stably carrying the Gli reporter plasmid
Assay: Gli reporter luciferase assay in NIH-3T3/Gli reporter cells stimulated with mouse Shh-N end fragment
Format: cell-based
Conditions: NIH3T3; 1 μM compound; NIH-3T3/Gli reporter cells with mouse Shh-N culture supernatant, 48 hr; luciferase activity, control without compound as 100; read-out: inhibitory rate (%) at 1 μM
Experimental: Gli reporter plasmid was constructed by inserting 8×Gli-binding site and chicken δ-crystalline promoter into the upstream of luc+ of pGL3 (Promega).
prepared in reference to the base sequence described in GenBank accession No.; X02187, and chicken genome DNA (Clontech) as a template. PCR reaction was performed using Pfu Turbo (Stratagene) and following the attached protocol. The obtained 108 bp fragment was digested with restriction enzymes BglII and HindIII, and inserted into BglII-HindIII site of pGL3 to give plasmid pGL3/δ-cry promoter.
As 8×Gli-binding site, a sequence containing eight 9-bp Gli bound consensus sequences (GACCACCCA) described in Yoon et al., J. Biol. Chem., vol. 273, pages 3496-3501 (1998) was prepared from synthetic DNA. That is, two synthetic DNAs,
were heat treated at 95° C. for 2 minutes, and incubated at 37° C. for 1 hr for annealing to give a double stranded DNA of the above-mentioned two synthetic DNAs. The obtained double stranded DNA was digested with restriction enzymes BglII and KpnI, and the obtained DNA fragment was inserted into BglII-KpnI site of pGL3/δ-cry promoter to construct plasmid pGL3/δ-cry promoter, 8×Gli binding site, i.e., Gli reporter plasmid.
HEK293 cells were grown in D-MEM medium (Invitrogen) containing 10% fetal bovine serum in a 10 cm dish and pcDNA3.1/mShh-N was introduced into the cells using FuGENE6 (Roche Applied Science). Thereafter, the HEK293 cells were cultured in a carbon dioxide gas incubator at 37° C. for 24 hours, and the medium was exchanged with D-MEM medium (Invitrogen) containing 2% fetal bovine serum. After culturing for 48 hr, a culture supernatant containing recombinant type mouse Shh-N end fragment was obtained by filtration using a filter ([…]).
Using D-MEM (Invitrogen) containing 10% fetal bovine serum, expression plasmid pcDNA3.1 and Gli reporter plasmid (pGL3/δ-cry promoter, 8×Gli binding site) produced by the method of Experimental Example 1 were introduced into NIH-3T3 cells grown in a 10 cm dish by the use of FuGENE6 (Roche Applied Science).
After culture for 24 hr, the cells were recovered, suspended in D-MEM medium containing 10% fetal bovine serum and supplemented with Geneticin (Life Technologies Oriental, Inc.) to a final concentration of 500 μg/ml, diluted to 10^4 cells/ml, plated on a 96 well plate, and cultured in a carbon dioxide gas incubator at 37° C. to give Geneticin resistant transformed cell line.
The obtained transformed cell line was cultured in a 96 well plate, mouse Shh-N end fragment obtained in Experimental Example 3 was added, and NIH-3T3/Gli reporter cell, which is a cell line capable of induction of luciferase expression, was selected.
NIH-3T3/Gli reporter cells cultured in D-MEM (Invitrogen) containing 10% fetal bovine serum were plated in a 96 well white plate at 1×10^4 cells/well, and cultured overnight in a carbon dioxide gas incubator at 37° C. The medium was removed, a compound (50 μl) and culture supernatant of mouse Shh-N end fragment-expressing HEK293 (D-MEM medium containing 2% fetal bovine serum, 50 μl) were added, and the cells were cultured for 48 hr in a carbon dioxide gas incubator at 37° C. Bright-Glo (Promega, 50 μl) was added, and the mixture was stirred, after which luciferase activity was measured by EnVision (PerkinElmer). The inhibition rate was calculated based on the luciferase activity of the control without addition of the compound as 100.

T1 sequence (P56726 33-793): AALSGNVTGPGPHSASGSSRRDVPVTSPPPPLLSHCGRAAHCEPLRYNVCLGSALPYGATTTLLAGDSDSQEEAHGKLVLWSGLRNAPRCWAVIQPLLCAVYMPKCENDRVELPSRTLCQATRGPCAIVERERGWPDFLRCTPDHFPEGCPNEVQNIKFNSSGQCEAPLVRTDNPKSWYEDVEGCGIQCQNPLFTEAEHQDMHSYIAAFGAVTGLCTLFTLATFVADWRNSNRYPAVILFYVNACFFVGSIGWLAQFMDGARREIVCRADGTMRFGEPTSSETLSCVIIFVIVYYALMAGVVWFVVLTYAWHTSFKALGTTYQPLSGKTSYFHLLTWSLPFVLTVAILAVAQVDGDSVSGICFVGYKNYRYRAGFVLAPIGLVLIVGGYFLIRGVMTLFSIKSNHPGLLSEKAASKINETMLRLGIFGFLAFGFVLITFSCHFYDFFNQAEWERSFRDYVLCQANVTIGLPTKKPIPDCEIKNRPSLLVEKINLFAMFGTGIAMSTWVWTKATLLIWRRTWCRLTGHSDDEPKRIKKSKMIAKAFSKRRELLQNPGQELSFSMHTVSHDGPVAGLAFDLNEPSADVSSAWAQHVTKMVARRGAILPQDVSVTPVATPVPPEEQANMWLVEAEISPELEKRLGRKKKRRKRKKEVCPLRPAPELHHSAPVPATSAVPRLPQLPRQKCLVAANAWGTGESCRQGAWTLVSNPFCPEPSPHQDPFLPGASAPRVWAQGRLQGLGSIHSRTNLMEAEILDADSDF

Row | inhibition at 1 µM | Compound
1 | 96% | CCc1nc2c(c(OCC(F)(F)F)c(C(=O)NC3CCN(C(=O)CO)CC3)n2C)c(=O)n1CC(=O)c1ccc(F)cc1 [Example 33, 2-ethyl-3-[2-(4-fluorophenyl)-2-oxoethyl]-N-[1-(hydroxyacetyl)piperidin-4-yl]-7-methyl-4-oxo-5-(2,2,2-trifluoroethoxy)-4,7-dihydro-3H-pyrrolo[2,3-d]pyrimidine-6-carboxamide]
2 | 97% | CCc1nc2c(c(OC(C)C)c(C(=O)NC3CCN(C(=O)CO)CC3)n2C)c(=O)n1CC(=O)c1ccc(F)cc1 [Example 34, 2-ethyl-3-[2-(4-fluorophenyl)-2-oxoethyl]-N-[1-(hydroxyacetyl)piperidin-4-yl]-7-methyl-5-(1-methylethoxy)-4-oxo-4,7-dihydro-3H-pyrrolo[2,3-d]pyrimidine-6-carboxamide]
